Here are results for one molecule from patent US20200123137A1, “DEUTERATED CFTR MODULATORS AND METHODS OF USE” (ABBVIE S.À.R.L., priority 2016, published 2020).

The structures appear in SMILES notation.

As usually defined, the EC50 is the concentration that produces a half-maximal response.

One assay deals with F508delCFTR (Homo sapiens, UniProt P13569, DEL508-508). Put plainly: Cell Surface Expression-Horse Radish Peroxidase (CSE-HRP) assay. The format is cell-based. As to conditions: CFBE41o-F508delCFTR-HRP cells. On the procedure: A cellular assay for measuring the F508delCFTR cell surface expression after correction with test compounds was developed in human lung derived epithelial cell line (CFBE41o-) (Veit G et al, (2012) Mol Biol Cell. 23(21): 4188-4202). This was achieved by expressing the F508delCFTR mutation along with a horseradish peroxidase (HRP) in the fourth exofacial loop and then measuring the HRP activity using luminescence readout from these cells, CFBE41o-F508delCFTR-HRP, that were incubated overnight with the test corrector compounds. […] Post incubation, the plates were washed 5 x times with Dulbecco's phosphate buffered saline (DPBS), followed by the addition of the HRP substrate, luminol (50 μL), and measuring the HRP activity using luminescence readout on EnVision® Multilabel Plate Reader (Perkin Elmer; product number 2104-0010). The raw counts from the experiment are analyzed using Accelrys® Assay Explorer v3.3. […]
The % activity measured at each of the 8 test concentrations of the test compound was normalized to the on-plate positive control using the following formula: […]
The maximum % activity achieved for the test compound at any tested concentration is presented in Table 1 along with the EC50 calculated using the following general sigmoidal curve with variable Hill slope equation (described as Model 42 in the Accelrys® Assay Explorer v3.3 software): […]

The next assay concerns the target T1, F508del/F508del CFTR (Homo sapiens, UniProt P13569, DEL508-508).
T1 construct: cells isolated from CF patients with the homozygous mutation; endogenous in cells; host or cells: primary human bronchial epithelial (hBE) cells from F508del/F508del CF patients
The experiment in a line: Transepithelial Clamp Circuit (TECC-24) conductance assay on primary human bronchial epithelial cells. The format is cell-based. The note with it: primary hBE cells F508del/F508del. An excerpt:
A cell based assay using the primary human bronchial epithelial cells (hBE) was used as a secondary assay to test novel F508delCFTR correctors for their activity on primary hBE cells with F508del/F508del CFTR mutation. The assay used a TECC-24 (Transepithelial Clamp Circuit for 24 wells) instrument that measures the functionality of the mutated channel by measuring the equivalent short circuit current (Ieq) generated by the polarized epithelial cells. The instrument works by measuring the transepithelial potential difference (Vt) and transepithelial resistance (Rt) in an open circuit format, and the Ieq is calculated by using Ohms law (Ieq=Vt/Rt). The assay was run in a 24-well format and all 24-wells were measured at the same time point giving a higher throughput for this assay.
Primary human bronchial epithelial (hBE) cells from F508del/F508delCFTR patients were expanded from 1×10^6 to 250×10^6 cells (Neuberger T, Burton B, Clark H and VanGoor F; Cystic Fibrosis, Methods in Mole Biol 741; eds. Amaral M D and Kunzelmann K, 2011). […]
The % activity measured at each of the 6 test concentrations of the test compound was normalized to the on-plate positive control using the following formula: […]

Chain of F508delCFTR (P13569 with tags, fused parts or gaps DEL508-508): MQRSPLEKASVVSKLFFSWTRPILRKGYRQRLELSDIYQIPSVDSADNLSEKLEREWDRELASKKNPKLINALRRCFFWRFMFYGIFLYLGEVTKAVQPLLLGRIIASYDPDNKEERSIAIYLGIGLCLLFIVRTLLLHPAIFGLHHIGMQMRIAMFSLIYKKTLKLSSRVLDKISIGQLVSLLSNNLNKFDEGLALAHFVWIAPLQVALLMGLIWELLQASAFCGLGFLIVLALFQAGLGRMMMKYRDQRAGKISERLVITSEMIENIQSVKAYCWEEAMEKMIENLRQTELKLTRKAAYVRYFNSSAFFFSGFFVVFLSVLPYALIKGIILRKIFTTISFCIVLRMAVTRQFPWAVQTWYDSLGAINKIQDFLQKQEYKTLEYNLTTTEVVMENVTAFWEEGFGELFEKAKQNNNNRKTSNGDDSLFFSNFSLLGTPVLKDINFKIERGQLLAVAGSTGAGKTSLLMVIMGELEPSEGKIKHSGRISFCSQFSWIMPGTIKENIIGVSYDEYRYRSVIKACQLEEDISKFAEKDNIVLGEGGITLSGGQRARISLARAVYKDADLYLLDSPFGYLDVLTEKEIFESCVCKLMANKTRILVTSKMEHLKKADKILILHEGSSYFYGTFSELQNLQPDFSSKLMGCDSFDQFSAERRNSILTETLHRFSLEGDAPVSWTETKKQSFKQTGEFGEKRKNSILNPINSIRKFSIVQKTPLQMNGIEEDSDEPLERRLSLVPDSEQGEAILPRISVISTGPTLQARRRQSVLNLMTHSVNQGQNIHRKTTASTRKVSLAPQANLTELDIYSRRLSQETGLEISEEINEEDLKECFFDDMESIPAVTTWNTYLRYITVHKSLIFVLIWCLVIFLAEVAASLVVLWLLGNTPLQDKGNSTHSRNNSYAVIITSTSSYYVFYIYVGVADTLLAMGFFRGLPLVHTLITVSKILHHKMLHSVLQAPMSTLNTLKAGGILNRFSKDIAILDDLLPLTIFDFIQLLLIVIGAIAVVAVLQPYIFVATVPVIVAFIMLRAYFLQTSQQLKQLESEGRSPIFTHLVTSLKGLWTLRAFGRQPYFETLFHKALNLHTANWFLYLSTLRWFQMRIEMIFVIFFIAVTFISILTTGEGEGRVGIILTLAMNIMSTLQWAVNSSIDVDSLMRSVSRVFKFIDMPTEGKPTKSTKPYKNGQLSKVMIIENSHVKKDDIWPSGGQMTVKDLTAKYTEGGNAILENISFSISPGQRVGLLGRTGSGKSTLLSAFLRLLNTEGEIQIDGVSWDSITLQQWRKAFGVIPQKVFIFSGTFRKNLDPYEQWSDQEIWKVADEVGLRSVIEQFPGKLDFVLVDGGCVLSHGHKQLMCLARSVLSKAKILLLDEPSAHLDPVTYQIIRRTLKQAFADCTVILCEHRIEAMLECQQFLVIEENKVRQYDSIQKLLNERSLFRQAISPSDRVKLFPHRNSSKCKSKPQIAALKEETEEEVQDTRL
T1 sequence (P13569 with tags, fused parts or gaps DEL508-508): as above

Turning to `[2H]c1cc(C(=O)O)cc([2H])c1C1Oc2cc(OC(F)F)c([2H])c([2H])c2C([2H])(NC(=O)C2(c3ccc4c(c3)OC(F)(F)O4)CC2)C1([2H])[2H]` [Example 1, 4-[(2R,4R)-4-({[1-(2,2-difluoro-1,3-benzodioxol-5-yl)cyclopropyl]carbonyl}amino)-7-(difluoromethoxy)(3,3,4,5,6-^2H5)-3,4-dihydro-2H-chromen-2-yl](3,5-^2H2)benzoic acid], the EC50 at F508delCFTR (F508delCFTR cell surface expression, 18-24 hours at 33° C., luminescence readout) turned out to be 27 nM; at F508del/F508del CFTR (18-24 hours at 37° C., equivalent short circuit current (Ieq), with control potentiator) it was 13 nM. Also, the Maximum % activity is recorded as 145% on F508delCFTR (maximum at any tested concentration, normalized to on-plate positive control (3 μM)) and 96% on F508del/F508del CFTR (relative to positive control (0.15 μM) coupled with control potentiator = 100%).
